The source of these data is patent publication US6800482B2, “Cultured cells of Australian laurel, Pittosporaceae and a method for culturing tissues by using said cultured cells” (Hiroshima University, priority 2001, dated 2004).

Common to all, as to format: cell-based
Experiment [1] deals with leaf of the Australian laurel, Pittosporaceae. As to the kind of experiment: Redifferentiation from the leaf in WP culture medium (Example 3, Table 2). As to conditions: NAA 0 μM, 22 to 28° C., bright place. The protocol: (§1) A WP culture medium or a MS culture medium was used as a fundamental culture medium. As a carbon source was used 1% sucrose, and 0.3% Gellan-Gum (Trade name) was used as a gelling agent. An Australian laurel, Pittosporaceae seed was treated with 70% ethanol for 1 hour with 2.5% sodium hypochlorite for 1 hour, and sterilized by washing it with sterilized water. After water was fed to the seed 2 night or more at 4° C. in dark, it was planted in the culture medium. After germination, a seedling of four weeks age was used for a tissue culturing. Cut pieces, 1 mm thick, were prepared from a leave, a stem and a roof of the living matter, and planted and cultured in the same culture medium as mentioned above but containing naphthaleneacetic acid and thidiazuron (TDZ) as a hormon. […] About 2 months after the planting, a shoot was cut out from the polyblast, and indoleacetic acid was applied to a cut portion of the shoot. The shoot treated with indoleacetic acid was inserted into a solid culture medium or a mixed soil of perlite and vermiculite containing a culture medium. The shoot was cultured and rooted.
Redifferentiation from the leaf and the stem of the Australian laurel, Pittosporaceae was examined. The WP culture medium was used as a culture medium. A culturing temperature was set in a range of 22 to 28° C. The Australian laurel, Pittosporaceae was cultured in a bright place. […]

In experiment [2] the test system is cut pieces from the stem of Australian laurel, Pittosporaceae. In words: Tissue culture of cut pieces in culture medium containing thidiazuron and naphthaleneacetic acid (Example 1, Table 1). To be noted: for Numbers of cut pieces leading to stem or leaf/10 cut pieces: NAA 0 μM, WP culture medium, 6 weeks. The method, then:
as §1
Cut pieces from the stem was cultured in the WP culture medium added with thidiazuron and naphthaleneacetic acid for 6 weeks, and observation results thereof are shown in Table 1.

Experiment [3] deals with Embryo (text: stem) of the Australian laurel, Pittosporaceae. As to the kind of experiment: Redifferentiation, column Embryo, in WP culture medium (Example 3, Table 2). As to conditions: for Redifferentiation Embryo: NAA 0 μM, WP culture medium, 22 to 28° C., bright place. The method, then: as §1
Redifferentiation from the leaf and the stem of the Australian laurel, Pittosporaceae was examined. The WP culture medium was used as a culture medium. A culturing temperature was set in a range of 22 to 28° C. The Australian laurel, Pittosporaceae was cultured in a bright place. The planting condition and the other culturing conditions were the same as those in Example 1.

`O=C(Nc1ccccc1)Nc1cnns1` [TDZ, thidiazuron]: the “Redifferentiation Leaf” value in experiment [1] (TDZ 10^4 nM) and in experiment [1] (TDZ 10^5 nM) was 0% each time. The “Numbers of cut pieces leading to stem or leaf/10 cut pieces” value in experiment [2] (TDZ 0.1 μm) and in experiment [2] (TDZ 10 μm) was 0 /10 cut pieces in each case. Further, the Redifferentiation result in experiment [2] (concentration of thidiazuron not less than 10 μM, culture medium containing naphthaleneacetic acid) is reported as “redifferentiation was confirmed”. For the same molecule, the “Redifferentiation Embryo” value in experiment [3] (TDZ 10^4 nM) is 5.0%; in experiment [3] (TDZ 10^5 nM), 10.0%. Besides, the Redifferentiation percentages entry in experiment [3] (cultures containing 10^4 to 10^5 nM thidiazuron) is “considerably high redifferentiation percentages”.
